Data on one compound can be found in patent publication US8338482B2, “Modulating notch1 signaling pathway for treating neuroendocrine tumors” (Wisconsin Alumni Research Foundation, priority 2007, dated 2012).

The conditions of data set [1]: human patients treated for epilepsy; cited from earlier work.
In another data set the test system is BON GI carcinoid cells. The experiment in a line: Flow cytometry cell cycle analysis. It is filed as cell-based, human. The following applies: VPA. The method, then:
Flow Cytometry GI carcinoid cells treated with or without VPA were labeled for 1 hour with 10 μM bromodeoxyuridine (Sigma-Aldrich) and counter-stained with 50 μg/ml propidium iodide and analyzed by two-dimensional flow cytometry (FACSCalibur flow cytometer; BD Biosciences) to detect both fluorescein and propidium iodide as previously described (Hirai, H. et al., Involvement of cell cycle progression in survival signaling through CD40 in the B-lymphocyte line WEHI-231. Cell Death Differ 2004; 11:261-269). Results were analyzed with FlowJo software (Tree Star, Ashland, Oreg.).
On the technique in general: Flow cytometry measures light scatter and fluorescence of single cells or particles in a stream.

Data set [2] concerns H727 human lung carcinoid cancer cells. Nature of the data set: MTT cell proliferation assay, pulmonary carcinoid cells. It is filed as cell-based. The following applies: VPA 0 to 4 mM, up to 6 days. The text has this:
Cell Culture BON human GI carcinoid cancer cells, kindly provided by Drs. B. Mark Evers and Courtney M. Townsend, Jr. (University of Texas Medical Branch, Galveston, Tex., USA), and H727 human lung carcinoid cancer cells (American Type Tissue Collection, Manassas, Va., USA) were maintained as previously described (Sippel, R S et al., Raf-1 Activation Suppresses neuroendocrine marker and hormone levels in human gastrointestinal carcinoid cells. Am J Physiol Gastrointest Liver Physiol. 2003 August; 285(2):G245-54, Van Gompel J J et al., ZM336372, A Raf-1 Activator, Suppresses Growth and Neuroendocrine Hormone Levels in Carcinoid Tumor Cells. Mol Cancer Ther. 2005 June; 4(6):910-7)
Cell Proliferation Assay Carcinoid cancer cell proliferation was measured by the MTT (thiazolyl blue tetrazolium bromide; Sigma-Aldrich, St. Louis, Mo., USA) rapid calorimetric assay as previously described (Van Gompel J J et al., ZM336372, A Raf-1 Activator, Suppresses Growth and Neuroendocrine Hormone Levels in Carcinoid Tumor Cells. Mol Cancer Ther. 2005 June; 4(6):910-7). Briefly, cells were seeded in quadruplicate on 24-well plates and incubated for 24 hours to allow cell attachment. The cells were then treated with SBHA (Sigma-Aldrich) in concentrations of 0 to 50 μM and incubated for up to 6 days. The MTT assay was performed by replacing the standard medium with 250 μL of serum-free medium containing MTT (0.5 mg/mL) and incubated at 37° C. for 3 hours. […] The plates were then measured at 540 nm using a spectrophotometer (μQuant; Bio-Tek Instruments, Winooski, Vt., USA). […]
Cell Proliferation Assay Carcinoid tumor cell proliferation was measured by the MTT (methylthiazolyldiphenyl-tetrazolium bromide; Sigma-Aldrich, St. Louis, Mo.) rapid colorimetric assay as previously described (Van Gompel J J et al., ZM336372, A Raf-1 Activator, Suppresses Growth and Neuroendocrine Hormone Levels in Carcinoid Tumor Cells. Mol Cancer Ther 2005; 4:910-917). […] The plates were then measured at 540 nm using a spectrophotometer (μQuant; Bio-Tek Instruments, Winooski, Vt.).
(Tetrazolium dyes change colour on reduction, which living cells bring about.)

Another data set concerns Notch1. Nature of the data set: CBF1 binding site luciferase reporter assay. It is filed as cell-based, human. The following applies: GI carcinoid cells, VPA 48 hours. On the procedure: Luciferase Reporter Assays GI carcinoid tumor cells were transiently transfected with luciferase constructs as previously described (Kunnimalaiyaan, M. et al., Conservation of the Notch1 signaling pathway in gastrointestinal carcinoid cells A J Physiol Gastrointest Liver Physiol 2005; 289:G636-642). Wild-type (4xwtCBF1Luc; 2 μg) or mutant (4xmutCBF1Luc; 2 μg) CBF1-luciferase reporter plasmids were co-transfected with CMV-β-gal (0.5 μg) (Hsieh J J et al., Truncated Mammalian Notch1 Activates CBF1/RBPJk-Repressed Genes by a Mechanism Resembling That of Epstein-Barr Virus EBNA2. Mol Cell Biol 1996; 16:952-959). In experiments with the γ-secretase inhibitor, N-[N-(3,5-difluorophenacetyl)-L-alanyl]-S-phenylglycine t-butyl ester (DAPT; EMD Biosciences, Darmstadt, Germany), to inhibit Notch1 cleavage and activation, cells were pretreated for 45 minutes with DAPT (50 μM) then treated with 4 mM VPA. […] Luciferase levels were measured using a Monolight 2010 Luminometer (Analytical Luminescence Laboratory, San Diego, Calif.). […]
(In general: In a reporter assay the amount or activity of a reporter protein is the signal.)

For the next data set, the system named is neuroblastoma (NB) cells. The following applies: cited from earlier work.

For `CCCC(CCC)C(=O)O` [VPA, 2-propylpentanoic acid], in data set [1], the therapeutic range is 50 to 125 µg/mL. In the data set on BON GI carcinoid cells, the “cells in the S phase” value was “decrease” and the “percentage of cells in the G1 phase” value is “dose-dependent increase”. Besides, the cell growth entry in data set [2] is reported as “Statistically significant growth inhibition”. Further, the “increase in CBF1 luciferase activity” value in the data set on Notch1 is recorded as 5 fold. In the data set on neuroblastoma (NB) cells, the cell death entry is given as “increased cell death”; the “levels of intracellular Notch-1 and Hes-1” value is on record as “increased levels”.
